{"source": "patent US20170002035A1", "about": "“NOVEL CRYSTALLINE FORMS OF AN ANTIVIRAL BENZIMIDAZOLE COMPOUND” (GlaxoSmithKline LLC, priority 1998, published 2017)", "origin": "cited, not measured here", "details": "amorphous material as disclosed in WO96/01833"}
{"smiles": "CC(C)Nc1nc2cc(Cl)c(Cl)cc2n1[C@H]1O[C@@H](CO)[C@H](O)[C@@H]1O", "note": "[Form 1263W94, 5,6-dichloro-2-(isopropylamino)-1-(β-L-ribofuranosyl)-1H-benzimidazole]", "values": [{"measurement": "hygroscopicity", "result": "hygroscopic"}]}
